Source: US20150209403A1, “Dose Adjustment” (AbbVie Inc., priority 2014, published 2015)
Each block holds one compound with its values, some of them ahead of it.

Tests used:
[1] = Drug interaction study of 3D or 2D with ketoconazole (KTZ); assay type: in vivo, human
Protocol: Single doses of Compound 1/r/ombitasvir 150/100/25 mg+/−dasabuvir 250 mg were administered alone and in the presence of steady state KTZ 400 mg QD in 24 healthy volunteers. Drug concentrations were determined from intensive blood samples and PK parameters were estimated by noncompartmental analyses. Safety assessment (adverse events, clinical labs, vital signs, ECG) was done throughout the study.

[2] = DDI studies of 3D regimen with HIV-1 N(t)RTIs, NNRTIs and INSTI; assay type: in vivo, human; conditions: for exposures (Cmax and AUCτ), % change: both; for exposures (Cmax and AUCτ), % change / exposures (Cmax and AUCτ), effect: human, in vivo
[3] = Drug interaction study of 3D or 2D regimen with omeprazole; conditions: human, in vivo, 40 mg
Protocol: In 24 healthy volunteers omeprazole (40 mg) were administered on day 1 and days 20-24. The 3D or 2D regimen (Compound 1/r 150/100 mg QD+ombitasvir 25 mg QD±dasabuvir 250 mg BID) was administered on days 6-24. Intensive PK sampling was performed for study drugs when dosed alone and during coadministration and parameters estimated by noncompartmental analyses. Safety was evaluated through assessment of adverse events, vital signs, ECG and clinical laboratory tests.

[4] = Drug interaction study of pravastatin and rosuvastatin with 3D or 2D; assay type: in vivo, human
Protocol: After a washout, multiple doses of pravastatin (10 mg QD, N=12) and rosuvastatin (5 mg QD, N=12) were administered with and without 3D or 2D to steady state in Period 2. […] Intensive PK sampling was performed in both periods and PK parameters estimated by noncompartmental analyses. Safety was evaluated through assessment of adverse events, vital signs, ECG and clinical laboratory tests.

[5] = Drug interaction study of 3D or 2D regimen with digoxin; assay type: in vivo, human; conditions: healthy volunteers
Protocol: Single doses of digoxin (0.5 mg) were administered alone and in presence of steady state Compound 1/r 150/100 mg QD+ombitasvir 25 mg QD+/−dasabuvir […] BID in 24 healthy volunteers. Drug concentrations were
determined from intensive blood samples collected on multiple study days and PK parameters were estimated by noncompartmental analyses. Safety was assessed (adverse events, vital signs, ECG, etc.) throughout the study.

[6] = DDI studies of 3D regimen with HIV-1 protease inhibitors (ATV, DRV, LPV/r); conditions: for tolerability: co-administration with 3D regimen; for Cmax, AUC and Ctrough, % change: HIV PI co-administered with 3D regimen; for Total bilirubin elevation Grade 3, subjects: 3D regimen DDI study
[7] = human, in vivo
Source text: Safety was monitored throughout the study.

[8] = Drug interaction study of 3D regimen with carbamazepine (CBZ); assay type: in vivo, human
Protocol: Single doses of the 3D regimen (Compound 1/r/ombitasvir 150/100/25 mg+dasabuvir 250 mg) were administered alone and in the presence of steady state CBZ 200 mg BID in 12 healthy subjects. Drug concentrations were determined from blood samples collected on multiple study days and PK parameters were estimated by noncompartmental analyses. Safety was assessed (adverse events, vital signs, ECG, etc.) throughout the study.

[9] = RPV 75 mg QD; cited from earlier work
[10] = single dose 3D or 2D with steady state KTZ 400 mg QD
[11] = LPV/r 800/200 mg QPM with 3D regimen

Exposures increased by [1, 10]: up to 42%
exposures (Cmax and AUCτ), % change [2]: up to ±18%
exposures (Cmax and AUCτ), effect [2]: not affected
Cmax, AUC or Ctrough, % change [3]: < 20%
SMILES: COc1c(-c2ccc3cc(NS(C)(=O)=O)ccc3c2)cc(-n2ccc(=O)[nH]c2=O)cc1C(C)(C)C [Compound 2, N-(6-(3-tert-butyl-5-(2,4-dioxo-3,4-dihydropyrimidin-1(2H)-yl)-2-methoxyphenyl)naphthalen-2-yl)methanesulfonamide]

AUC, % higher ([4]; statin with 3D or 2D): ~80%
Cmax, % higher ([4]; statin with 3D or 2D): about 40%
SMILES: CC[C@H](C)C(=O)O[C@H]1C[C@H](O)C=C2C=C[C@H](C)[C@H](CC[C@@H](O)C[C@@H](O)CC(=O)O)[C@H]21 [Pravastatin]

SMILES: C[C@H]1O[C@@H](O[C@H]2[C@@H](O)C[C@H](O[C@H]3[C@@H](O)C[C@H](O[C@H]4CC[C@@]5(C)[C@H](CC[C@@H]6[C@@H]5C[C@@H](O)[C@]5(C)[C@@H](C7=CC(=O)OC7)CC[C@]65O)C4)O[C@@H]3C)O[C@@H]2C)C[C@H](O)[C@@H]1O [digoxin]
exposures (Cmax and AUCinf) increased by ([5]; digoxin 0.5 mg single dose with 2D): 24-58%
exposures (Cmax and AUCinf) increased by ([5]; digoxin 0.5 mg single dose with 2D, listed as Digoxin): ≤ 58%
exposures (Cmax and AUCinf) increased by ([5]; digoxin 0.5 mg single dose with 3D): 15-16%
exposures (Cmax and AUCinf) increased by ([5]; digoxin 0.5 mg single dose with 3D, listed as Digoxin): ≤ 16%

AUC24 increased by ([1]; in vivo): 105-117%
Cmax, % change ([1]; in vivo): < 20%
SMILES: CC(=O)N1CCN(c2ccc(OCC3COC(Cn4ccnc4)(c4ccc(Cl)cc4Cl)O3)cc2)CC1 (centres unmarked) [KTZ, Ketoconazole]

exposures (Cmax and AUCτ), % higher ([6]; 3D regimen with LPV/r QPM or BID): ≤ 117%
AUCinf increased by [1, 10]: 98-116%
Cmax increased by ([1]; single dose 3D or 2D with steady state KTZ 400 mg QD, healthy volunteers): 37-72%
exposures (Cmax and AUCτ), % change [2]: up to ±32%
exposures (Cmax and AUCτ), effect [2]: not affected
Cmax, AUC or Ctrough, % change [3]: < 20%
SMILES: Cc1cnc(C(=O)N[C@H]2CCCCC/C=C\[C@@H]3C[C@@]3(C(=O)NS(=O)(=O)C3CC3)NC(=O)[C@@H]3C[C@@H](Oc4nc5ccccc5c5ccccc45)CN3C2=O)cn1 [Compound 1, (2R,6S,13aS,14aR,16aS,Z)—N-(cyclopropylsulfonyl)-6-(5-methylpyrazine-2-carboxamido)-5,16-dioxo-2-(phenanthridin-6-yloxy)-1,2,3,5,6,7,8,9,10,11,13a,14,14a,15,16,16a-hexadecahydrocyclopropa[e]pyrrolo[1,2-a][1,4]diazacyclopentadecine-14a-carboxamide]

AUC, % higher ([4]; statin with 2D): 32%
Cmax, % higher ([4]; statin with 2D): 161%
AUC, % higher ([4]; statin with 3D): 159%
Cmax, % higher ([4]; statin with 3D): 613%
SMILES: CC(C)c1nc(N(C)S(C)(=O)=O)nc(-c2ccc(F)cc2)c1/C=C/[C@@H](O)C[C@@H](O)CC(=O)O [Rosuvastatin]

tacrolimus DN_AUCinf, fold of tacrolimus exposure when administered alone [7]: 57-86 fold
tacrolimus DN_Cmax, fold of tacrolimus exposure when administered alone [7]: 3.7-4.3 fold
tacrolimus DN_C24, fold of tacrolimus exposure when administered alone ([7]; 24 h): 17-25 fold
SMILES: C=CC[C@@H]1/C=C(\C)C[C@H](C)C[C@H](OC)[C@H]2O[C@@](O)(C(=O)C(=O)N3CCCC[C@H]3C(=O)O[C@H](/C(C)=C/[C@@H]3CC[C@@H](O)[C@H](OC)C3)[C@H](C)[C@@H](O)CC1=O)[C@H](C)C[C@@H]2OC [tacrolimus]

SMILES: CC(C)CN(C[C@@H](O)[C@H](Cc1ccccc1)NC(=O)O[C@H]1CO[C@H]2OCC[C@H]21)S(=O)(=O)c1ccc(N)cc1 [DRV, Darunavir]
tolerability [6]: generally well tolerated

SMILES: Cc1nnc(C(=O)NC(C)(C)c2nc(C(=O)NCc3ccc(F)cc3)c(O)c(=O)n2C)o1 [RAL, Raltegravir]
treatment discontinuations / premature discontinuation due to AE ([2]; co-administration of 3D regimen with HIV-1 ARV): no treatment discontinuations
tolerability ([2]; co-administration with 3D regimen): generally well tolerated

Cmax, AUC and Ctrough, % change [6]: ≤ 15%
Ctrough versus values observed with LPV/r 400/100 mg BID administered alone [6, 11]: comparable
Ctrough, % higher [6, 11]: 218%
SMILES: Cc1cccc(C)c1OCC(=O)N[C@@H](Cc1ccccc1)[C@@H](O)C[C@H](Cc1ccccc1)NC(=O)[C@H](C(C)C)N1CCCNC1=O [LPV, Lopinavir]

exposures, % increase ([8]; CBZ with 3D): ≤ 17%
SMILES: NC(=O)N1c2ccccc2C=Cc2ccccc21 [CBZ, Carbamazepine]
Increases in ALT and AST, peak ([8]; 3D coadministered with CBZ): Grade 3 in 1 subject
tolerability ([8]; coadministration of 3D with CBZ): generally tolerated

Total bilirubin elevation Grade 3, subjects ([6]; ATV QD arm): 10/24
Total bilirubin elevation Grade 3, subjects ([6]; ATV QPM arm): 16/24
Ctrough, % higher ([6]; ATV+RTV QPM with 3D regimen): 68%
Cmax, AUC and Ctrough, % change [6]: ≥ 20%
SMILES: COC(=O)N[C@H](C(=O)N[C@@H](Cc1ccccc1)[C@@H](O)CN(Cc1ccc(-c2ccccn2)cc1)NC(=O)[C@@H](NC(=O)OC)C(C)(C)C)C(C)(C)C [ATV, Atazanavir]
tolerability [6]: generally well tolerated

SMILES: Cc1cc(/C=C/C#N)cc(C)c1Nc1ccnc(Nc2ccc(C#N)cc2)n1 [RPV, Rilpivirine]
Cmax, fold higher than Cmax with RPV 25 mg QD [9]: approximately 2.6 fold
QTcF increase [9]: 10.7 ms

Exposures increased by [1, 10]: 27-57%
exposures (Cmax and AUCτ), % change [2]: ±17%
exposures (Cmax and AUCτ), effect [2]: not affected
SMILES: CC(C)c1nc(CN(C)C(=O)N[C@H](C(=O)N[C@@H](Cc2ccccc2)C[C@H](O)[C@H](Cc2ccccc2)NC(=O)OCc2cncs2)C(C)C)cs1 [ritonavir]

Exposures increased by [1, 10]: up to 26%
exposures (Cmax and AUCτ), % change [2]: up to ±11%
exposures (Cmax and AUCτ), effect [2]: not affected
SMILES: COC(=O)N[C@H](C(=O)N1CCC[C@H]1C(=O)Nc1ccc([C@@H]2CC[C@@H](c3ccc(NC(=O)[C@@H]4CCCN4C(=O)[C@@H](NC(=O)OC)C(C)C)cc3)N2c2ccc(C(C)(C)C)cc2)cc1)C(C)C [Compound 3]
